Measured values taken from patent publication US4656178A (priority 1985, dated 1987).
Where a name gives a salt, the structure may show the parent alone.

How the values were obtained:
[1] = infiltration anesthesia in rabbits (intracutaneous); format: in vivo; conditions: 0.01-0.05% and 0.1% solutions
Description: (§1) The local anesthetic effect of the preparation was studied on 14 intact rabbits. […] The results of the experiments on determination of the ability of the preparation to cause infiltration anesthesia have shown that 10-15 minutes after intracutaneous administration, to rabbits, of 0.01-0.05% and 0.1% solutions of the preparation anesthesia occurs which is characterized by an increased threshold of a pain irritation; the duration of the effect is 20 to 48 hours. Under the same conditions of the experiment, the local anesthetic effect of a 0.5% solution of novocaine lasts for 90 minutes on the average.

lethal dose in rabbits = format: in vivo
Description: (§2) The resorptive effect and toxicity of the preparation according to the present invention were studied on mice, rats, rabbits and dogs.
(§3) In doses of 5-6 mg/kg intravenously the preparation according to the present invention causes death of dogs and in doses of 3-4 mg/kg it is lethal for rabbits.

[2] = pharmacological effects, summary; conditions: in vivo
lethal dose in dogs = format: in vivo; conditions: intravenous
Description: as §2, §3

allergenic effect = format: in vivo; conditions: 12 guinea pigs and 6 rabbits
solubility = format: physicochemical
Description: The aerial portion and roots (tubers) of the plant Acontium leucostomum are disintegrated. The disintegrated air-dry raw material is wetted with a 3% solution of sodium carbonate and 1 hour thereafter is poured with chloroform. 12 hours afterwards the chloroform is drained and the plant is treated with a fresh portion of chloroform. There are thus obtained 8 extracts which are combined and evaporated under vacuum to a small volume. From the concentrated chloroform extract the alkaloids are recovered by means of a 2% sulphuric acid. The combined acid extracts are washed with chloroform, alkalinized by soda and extracted with chloroform. The chloroform extract is evaporated and the residue is treated with acetone to give a commercial product--lappaconitine which is recrystallized from methanol. Methanolic solution of lappaconitine and hydrobromic acid are mixed. […] M.p. is 216°-220° C., [α]D^24 =+27 (alcohol); C32 H44 O8 N2.HBr, molecular weight= 664.9.

aconitine arrhythmia [3] = test: prevention of aconitine arrhythmia in rats and dogs; format: in vivo
Description: (§4) The atrioventricular arrhythmia caused by aconitine is one of the most reliable models for forecasting the efficiency of the antiarrhythmic action of the novel preparation in clinics. The experiments were conducted on both narcotized and non-narcotized animals. The preparation was administered per os, intramuscularly, intraperitoneally and intravenously 5 to 15 minutes prior to or 3-5 minutes after the administration of aconitine.
The duration of the antiarrhythmic action of the preparation was studied on rats intravenously administered with aconitine 1, 2, 4, 6, 24 and 48 hours after the preparation administration per os.

cardiac contractions = test: strength of cardiac contractions in narcotized rats and guinea pigs; format: in vivo; conditions: intravenous, 0.1, 0.5, 1, 2 mg/kg
Description: (§5) To find out a negative inotropic effect on the heart tissue, two series of experiments have been carried out:
(2) the study of the preparation according to the present invention on the strength of cardiac contractions on narcotized (sodium ethaminal, 50-60 mg/kg intraperitoneally) rats and guinea pigs.

aconitine arrhythmia [4] = test: animal or person; format: in vivo, rats
Description: The assessment of the antiarrhythmic activity of the preparation was effected in acute and chronical experiments on rats, rabbits, cats and dogs. Various experimental models of arrhythmia were also used.
as §4
In doses of 0.2-0.5 mg/kg the preparation of this invention prevents the appearance of aconitine arrhythmia in 100% of the rats. […] Under similar experimental conditions a preliminary administration of novocainamide in the dose of 60 mg/kg intravenously produced an antiarrhythmic effect in 50% of the animals.

[5] = 6-month histological toxicity, rats; format: in vivo; conditions: per os, 1 mg/kg, 6 months
[6] = tested on: coronary blood circulation; test: volume rate of the coronary blood flow in cats; format: in vivo
Description: The effect of the pharmaceutical composition according to the present invention on the coronary blood circulation was studied in acute experiments on cats by the method of recording of the volume rate of the coronary blood flow. […] The introduction of 1 mg/kg of the preparation results in an increased volume rate of the coronary blood flow by 30-80% during a long time.

[7] = sugar, protein and enzymes in rats' blood; format: in vivo; conditions: 1 mg/kg, single and lasting administration
[8] = effect on arterial pressure and breathing in narcotized cats and dogs; format: in vivo; conditions: intravenous, 0.05, 0.1, 0.5, 1 mg/kg
Description: With the view to evaluate the effect of the preparation according to the present invention on arterial pressure and breathing, experiments have been carried out on narcotized cats and dogs.

[9] = tested on: potassium channels of the membrane of neurons; test: ion currents through the somatic membrane of mollusc neurons: potassium channels; format: cell-based, mollusca
Description: (§6) The study of the effect produced by the preparation of the present invention on ion currents through the somatic membrane of neurons has shown that it selectively interacts with calcium and potassium channels of the membrane of neurons of mollusca, whereby the currents along these channels are suppressed.

[10] = diuresis and urine of rats; format: in vivo; conditions: 0.5-1 mg/kg
[11] = long-time administration, histological analysis of inner organs; format: in vivo, laboratory animals (dogs, rabbits, rats); conditions: 10 mg/kg
[12] = teratogenicity in pregnant rats; format: in vivo; conditions: 317 pregnant rats, 2,377 feti
[13] = tested on: central adreno- and cholinergic processes; test: central effects (sedative, adreno-, cholinergic, serotonin); conditions: in vivo
frog's heart = test: amplitude of cardiac contractions of isolated frog's heart (Schtraube); conditions: concentration of 10^-6 -5.10^-5 g/ml
Description: as §5
(1) the study of the effect of the preparation of this invention on the amplitude of the cardiac contractions of a frog's heart isolated according to Schtraube;

[14] = local anesthetic effect in intact rabbits; format: in vivo
Description: as §1

[15] = tested on: calcium channels of the membrane of neurons; test: ion currents through the somatic membrane of mollusc neurons: calcium channels; format: cell-based, mollusca
Description: as §6

CCN1CC2(OC(=O)c3ccccc3NC(C)=O)CCC(OC)C34C1C(CC23)C1(O)CC(OC)C2CC4C1(O)C2OC (centres unmarked) [lappaconitine hydrobromide]
duration of infiltration anesthesia [1]: 20 to 48 h
onset of infiltration anesthesia ([1]; intracutaneous): 10 to 15 min
lethal dose (lethal dose in rabbits): 3 to 4 mg/kg
moderate additional effects [2]: moderate coronarydilating, spasmolytic, local anesthetic, anti-inflammatory and sedative effects
reduction of systemic arterial pressure and negative inotropic effect [2]: not accompanied by reduction of the systemic arterial pressure, and a negative inotropic effect on the cardiac tissue
lethal dose (lethal dose in dogs): 5 to 6 mg/kg
allergenic effect (allergenic effect): no allergenic effect
solubility (solubility): soluble in water, alcohol, better in methanol
duration of antiarrhythmic action (aconitine arrhythmia [3]; aconitine model): up to 24 hours
animals in which development of aconitine arrhythmia is fully prevented (aconitine arrhythmia [3]; intravenous, 0.2-0.3 mg/kg, narcotized rats and dogs): 100%
animals in which development of aconitine arrhythmia is fully prevented (aconitine arrhythmia [3]; peroral, 1-2 mg/kg, dogs and intact rats): 100%
influence on amplitude of cardiac contractions (cardiac contractions): no influence on the amplitude of cardiac contractions
minimal effective dose (aconitine arrhythmia [4]; Rattus norvegicus, read-out: dose from which the antiarrhythmic effect is revealed): 0.03 mg/kg
animals in which appearance of aconitine arrhythmia is prevented (aconitine arrhythmia [4]; doses of 0.2-0.5 mg/kg, rats): 100%
antiarrhythmic index (LD50/ED50) (aconitine arrhythmia [4]; prophylactic effect, aconitine arrhythmia): 118.0
destructive changes of inner organs and tissues [5]: no destructive changes on the part of inner organs and tissues
animals with increased coronary blood flow ([6]; 0.5 mg/kg): 40%
increase of coronary blood flow ([6]; 0.5 mg/kg, in 40% of the animals): 15-30%
increase of volume rate of coronary blood flow ([6]; 1 mg/kg, during a long time): 30-80%
effect on coronary blood flow ([6]; intravenous, 0.1 mg/kg): does not provide any effect
content of sugar, protein and enzymes in blood [7]: does not result in substantial changes
influence on arterial pressure and breathing [8]: did not exert any influence on the arterial pressure and breathing
effect on currents along potassium channels [9]: suppressed
effect on diuresis [10]: no effect on diuresis of rats
protein and blood in urine ([10]; sulphanylic acid test and benzidine test): not detected
structural changes in inner organs [11]: structural changes in the inner organs
teratogenicity [12]: not a potentially teratogenic substance
central sedative effect [13]: weak central sedative effect
effect on central adreno- and cholinergic processes [13]: does not provide any substantial effect on central adreno- and cholinergic processes
serotonin-negative effect [13]: weak
negative inotropic effect, isolated heart (frog's heart): does not provide a negative inotropic effect
anesthetic activity relative to tetracaine hydrochloride ([14]; 14 intact rabbits): matches tetracaine hydrochloride in its anesthetic activity
depth of anesthesia relative to tetracaine hydrochloride ([14]; rabbit, in vivo): inferior to tetracaine hydrochloride
duration of anesthetic effect relative to tetracaine hydrochloride ([14]; rabbit, in vivo): more than 6 times
effect on currents along calcium channels [15]: suppressed
